The values that follow come from a melting point compilation (Tetko et al.; mined from patent text by program, amines drawn as free bases though some values may be those of a salt).

In the case of `COc1cc2ccc(CC(=S)N3CCOCC3)cc2c(C)c1OC`, the melting point fell in the range of 100 to 103 °C.
For `CCN(C(=O)C1CC1)c1cccc(-c2ccnc3ccnn23)c1`, the melting point is 127 to 129 °C.
As for `Cc1cc(C)c2cccc(OCc3c(Cl)ccc(S(=O)(=O)N4CCC[C@H]4C(=O)N4CCN(C(=O)c5cccc(C(N)=NO)c5)CC4)c3Cl)c2n1`, the melting point worked out at 160 °C.
`CCOC(=O)C1=Cc2cc(Br)c(F)cc2OC1C(F)(F)F` (configuration not stated) showed a melting point of 98.5 to 100 °C.
`Cn1c(=O)cc(CC(=O)O)c2cc(C#N)ccc21` registered a melting point of 238 °C.
On to `O=C(CN(Cc1ccccc1)c1c(C(=O)O)[nH]c2cc(Cl)cc(Cl)c12)c1ccccc1`, for which the melting point was in the range of 266 to 267 °C.
Turning to `O=C(O)c1cc(-c2ccccc2)cc2c(-c3ccccc3)c([N+](=O)[O-])oc12`, the melting point is 207 to 209 °C.
Regarding `O=[N+]([O-])c1cc(-c2cccc3ccccc23)c2nc(Cl)ccc2c1`, the melting point fell in the range of 224 to 225 °C.
With `COc1cc(NC(=O)c2cccc(CSc3nc(NC(C)=O)n[nH]3)c2)cc(OC)c1OC` the figure was 196 to 201 °C; with `C=CCOC(=O)c1c(Oc2nc(OC)cc(OC)n2)ccc2[nH]c(C)c(NC(C)=O)c12`, 177 to 180 °C.
Consider `CCOC(=O)c1ccc2nccn2c1`, for which the melting point lay in the range of 93 to 94 °C.
With `CCOC(=O)C(O)=Cc1nccc(OCc2ccccc2)n1` the figure was 124 to 126 °C; with `O=C(NCC(F)(F)F)c1nn(-c2ccc(F)cc2F)c2c1C1CCC2C1` (configuration not stated), 149 to 152 °C; with `CCCc1c(OCCCCCC(=O)c2cc(OC)c(OC)cc2F)ccc(C(=O)O)c1O`, 146 to 147 °C.
`CC(=O)OC1CSC(Oc2cccc(-c3cnoc3C)c2)C(OC(C)=O)C1OC(C)=O` (configuration not stated) showed a melting point of 60 °C.
In turn, `Cc1c(Br)sc(N2C(=O)c3ccccc3C2=O)c1C(=O)c1ccc(Cl)cc1` yielded a melting point of 194 to 195 °C.
With `CC(NC(=O)Cc1cc(F)cc(F)c1)C(=O)NC1C(=O)N(CCc2ccccc2)Cc2ccccc21` (configuration not stated) the figure was 75 to 76 °C.
With `CC(=O)Nc1ccc2[nH]c(=O)c(=O)n(CC(C)(C)C)c2c1`, the melting point lay within 294 to 295 °C.
In turn, `O=Cc1cc2cc(OCc3ccccc3)ccc2nc1Cl` yielded a melting point of 180 to 182 °C.
`CC1(C)CCC(C)(C)c2cc(C(=O)C=Cc3ccc(C(=O)O)c(O)c3)ccc21` had a melting point of 260 to 261 °C.
Molecule `CCOC(=O)C1C(c2ccc([N+](=O)[O-])cc2)CC(=O)N1C` (configuration not stated) had a melting point of 142 to 143 °C.
The molecule `CC(=O)Nc1ccc(S(=O)(=O)Nc2ccc(C(O)(C(F)(F)F)C(F)(F)F)cc2)cc1` returned a melting point of 198 to 200 °C.
To `COc1cccc(C=C2NC(=O)NC2=O)c1OCc1ccccc1` belongs 210 to 212 °C.
`C/C(C=O)=C\c1ccc([N+](=O)[O-])cc1` yielded a melting point of 112 to 114 °C.
`COC(=O)CCCC(=O)c1cc2c(c(S(=O)(=O)Cl)c1)OCC2` had a melting point of 78 to 79 °C.
`CCOC(=O)c1cccc2oc(C=O)cc12` gave a melting point of 88 to 89 °C.
In turn, `CCOC(=O)c1cc(NCc2ccccc2)c(Nc2ccccc2)c(S(=O)(=O)Nc2ccccc2)c1` registered a melting point of 166 to 167 °C.
In turn, `COc1cc(N)c(Cl)cc1C(=O)NCC1CCN(CCCS(=O)(=O)Cc2ccccc2)CC1` returned a melting point of 166 to 168 °C.
`COc1c(Cl)cccc1N1CN(C)C(=S)n2ncnc21` returned a melting point of 208 to 210 °C.
Take `COc1cc(Cl)nc(S(C)(=O)=O)n1`: the melting point is 68 to 74 °C.
`COc1ccc(S(=O)(=O)Nc2ncnc(OCCO)c2Cc2ccccc2OC)cc1` registered a melting point of 161 to 162 °C.
Regarding `CCC(C)N(C)C(=O)c1nc(-c2ccccc2)c2ccccc2n1` (configuration not stated), the melting point came to 128 °C.
Molecule `CCOc1cc(-c2nnc3c4ccccc4c(OCc4ncnn4C)nn23)no1` came in with a melting point of 223 to 225 °C.
To `CCOC(CN1C(=O)C(NC(=O)Nc2cccc(C)c2)CN(C(=O)C(C)(C)C)c2ccccc21)OCC` (configuration not stated) belongs 167 to 169 °C; to `Brc1ccn2nc(N3CCCC3)nc2c1`, 170 to 172 °C.
Turning to `CCCCSC(=S)N1Cc2[nH]c3ccccc3c2CC1CO` (configuration not stated), the melting point was in the range of 60 to 63 °C.
For the molecule `CCCn1nc2c(N)nc3c(c2c1CCCc1cc(-c2ccccc2)no1)CCCC3`, the melting point was in the range of 154 to 155 °C.
`O=C(NCCN1CCCC1)N1CCN(c2ccccc2)CC1` had a melting point of 81.5 to 84 °C.
With `CCCS(=O)(=O)Oc1c(C(=O)c2ccc3c(c2C)C(N(C)C(=O)OC)CCS3(=O)=O)cnn1CC` (configuration not stated), the melting point lay within 156 to 159 °C.
`Cc1ccc2c(c1)c(=O)[nH]c(=O)n2CCCCN1CCC(OC(c2ccccc2)c2ccccc2)CC1` registered a melting point of 180 to 182 °C.
`C[Si](C)(C)C/C=C/[C@@H](Cc1ccccc1)C(=O)N1C(=O)OC[C@H]1Cc1ccccc1` returned a melting point of 132 to 135 °C.
The molecule `COCCOc1cc2ncnc(NC3=CC(=O)C(Br)=CC3=O)c2cc1OC` displayed a melting point of 200 to 210 °C.
The molecule `Cc1c[nH]c(-c2ccc(OCC(O)CNC(C)(C)C)cc2)n1` (configuration not stated) had a melting point of 202 to 203 °C.
Molecule `O=C1CCC(N2C(=O)c3ccccc3C2=O)c2ccsc21` (configuration not stated) showed a melting point of 163 to 166 °C.
As for `CCNC(=O)c1ccc(-n2nnc(C(=O)NC3CC3)c2CO)c(O)c1`, the melting point came to 185 °C.
With `CS(=O)(=O)C(=C1CN(C(c2ccccc2)c2ccccc2)C1)c1cccc(N2CCCC2)c1` the figure was 153 °C; with `CC(C)COC(=O)Nc1cc(F)c(C2=CCSCC2)c(F)c1`, 136 to 137 °C; with `c1ccc(C2CC(n3ccnc3)c3ccccc3N2)cc1` (configuration not stated), 170 to 172 °C.
As to `CC(Cn1ncnn1)n1nnc2cc3c(=O)n(C)nnc3cc2c1=O` (configuration not stated), the melting point lay within 228 to 230 °C.
With `CC(c1oc2ccccc2c(=O)c1-c1cccc(F)c1)n1nc(-c2cn[nH]c2)c2c(N)ncnc21` (configuration not stated) the figure was 223 to 226 °C.
The molecule `CCCc1nnc2c(NC3CCCC3)nc3ccccc3n12` showed a melting point of 186 to 188 °C.
`CC(C)(C)NC(=O)OC1OCN(c2cccc(C(F)(F)F)c2)C1=O` (configuration not stated) showed a melting point of 125 to 126 °C.
Turning to `O=[N+]([O-])c1cc(CBr)n(CCBr)n1`, the melting point is 95 to 97 °C.
Molecule `Nc1cc(-c2c(-c3cccc(Cl)c3)nc3ccc(Cl)nn23)ccn1` had a melting point of 268 to 269 °C.
On to `CCNC(=O)c1nc(-c2ccccc2)c(-c2ccc(=O)n(C(C)C)n2)s1`, for which the melting point was 172 to 174 °C.
As for `CCOC(=O)c1cnn2c1NCC=C2c1cccc(C(F)(F)F)c1`, the melting point lay in the range of 108 to 110 °C.
`O=C(Cc1ccc(Cl)cc1)N1CCC2(CC1)Cc1ccccc1O2`: the melting point is 108 to 110 °C.
The molecule `CC(C)OC(=O)c1cc(N=c2sc(=O)n3n2CCCC3)c(F)cc1F` had a melting point of 86 to 88 °C.
`CS(=O)(=O)c1ccc(-c2sc(Nc3ccc(C#N)cc3)nc2-c2ccc(F)cc2)cc1` yielded a melting point of 273 to 274 °C.
With `CNC(=C(Br)C#N)c1ccc(Cl)cc1` the figure was 178 °C; with `CCOC(=O)c1cn(CC)c2c(F)c(C)c(F)cc2c1=O`, 147 to 150 °C.
For the molecule `c1ccc(-c2ccc(-c3cn4ccc5ccccc5c4n3)cc2)cc1`, the melting point fell in the range of 221 to 222 °C.
